Measurements as given in patent US7214682B2, “Substituted 2-pyridinyl-6,7,8,9-tetrahydropyrimido{1,2-a}pyrimidin-4-one and 7-pyridinyl-2,3-dihydroimidazo{1,2-a}pyrimidin-5(1h)one derivatives” (Sanofi-aventis, priority 2001, dated 2007).

Legend:
[1] = target: cdk5/p25 (Homo sapiens, UniProt Q00535); test: Inhibitory activity against cdk5/p25 (TPK2), 33P-ATP phosphorylation of Histone H1; assay type: biochemical; conditions: TPK2 = cdk5/p25 (b7); table 4
Procedure: The following protocol may be used: 0.4 mg/ml Histone H1 and 10 μM ATP (containing 300,000 cpm of ^33P-ATP) were incubated in 50 mM Hepes, pH 7.2, 1 mM DTT, 1 mM MgCl2, 1 mM EGTA, 0.02% Tween 20 buffer for 1 hour at room temperature in the presence of cdk5/p25 (total reaction volume: 100 microliters). Inhibitors were solubilized in DMSO (final solvent concentration in the reaction medium, 1%). The reaction was stopped with 100 microliters of a solution of 25 g polyphosphoric acid (85% P2O5), 126 ml 85% H3PO4, H2O to 500 ml (diluted to 1:100 before use). An aliquot of the reaction mixture was then transferred to Whatman P81 cation exchange filters and rinsed with the solution described above. Incorporated ^33P radioactivity was determined by liquid scintillation spectrometry. The cdk5/p25 inhibitory activity of the compounds of the present invention are expressed as IC50 values. Typically, 3-fold serial dilutions of the inhibitor over at least a 1000-fold concentration range are used.

[2] = target: GSK3β (Homo sapiens, UniProt P49841); test: Inhibitory activity against GSK3β (TPK1), 33P-ATP phosphorylation of GS1 peptide; assay type: biochemical; conditions: TPK1 = GSK3β (b5); table 4
Sequence of GSK3β (P49841 whole entry, species assumed): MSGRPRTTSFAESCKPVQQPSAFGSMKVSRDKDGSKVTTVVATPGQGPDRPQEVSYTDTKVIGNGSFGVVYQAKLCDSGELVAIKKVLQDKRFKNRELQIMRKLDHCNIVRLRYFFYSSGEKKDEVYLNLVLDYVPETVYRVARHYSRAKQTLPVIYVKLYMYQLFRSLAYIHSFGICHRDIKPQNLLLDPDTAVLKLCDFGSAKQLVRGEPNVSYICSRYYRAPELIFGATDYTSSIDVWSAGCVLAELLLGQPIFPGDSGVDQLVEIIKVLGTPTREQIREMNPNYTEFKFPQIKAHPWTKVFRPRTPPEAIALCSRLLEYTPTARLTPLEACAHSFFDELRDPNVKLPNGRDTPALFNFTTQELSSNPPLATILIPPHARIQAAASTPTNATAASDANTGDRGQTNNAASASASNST
Procedure: Two different protocols can be used.
In a first protocol: 7.5 μM of prephosphorylated GS1 peptide and 10 μM ATP (containing 300,000 cpm of 33P-ATP) were incubated in 25 mM Tris-HCl, pH 7.5, 0.6 mM DTT, 6 mM MgCl2, 0.6 mM EGTA, 0.05 mg/ml BSA buffer for 1 hour at room temperature in the presence of GSK3β (total reaction volume: 100 microliters).
In a second protocol: 4.1 μM of prephosphorylated GS1 peptide and 42 μM ATP (containing 260,000 cpm 33P-ATP) were incubated in 80 mM Mes-NaOH, pH 6.5, 1 mM Mg acetate, 0.5 mM EGTA, 5 mM 2-mercaptoethanol, 0.02% Tween 20, 10% glycerol buffer for 2 hours at room temperature in the presence of GSK3β.
Inhibitors were solubilized in DMSO (final solvent concentration in the reaction medium, 1%).
The reaction was stopped with 100 microliters of a solution made of 25 g polyphosphoric acid (85% P2O5), 126 ml 85% H3PO4, H2O to 500 ml and then diluted to 1:100 before use. An aliquot of the reaction mixture was then transferred to Whatman P81 cation exchange filters and rinsed with the solution described above. Incorporated 33P radioactivity was determined by liquid scintillation spectrometry.
The phosphorylated GS-1 peptide had the following sequence: NH2-[…](P)EDEE-COOH.
The GSK3β inhibitory activity of the compounds of the present invention are expressed in IC50, and as an illustration the range of IC50's of the compounds in table 1 is between 4 nanomolar to 2 micromolar concentrations, of the compounds in table 2 is between 30 nanomolar to 2 micromolar concentrations and of the compounds in table three is between 1 nanomolar to 2 micromolar.

Sequence of cdk5/p25 (Q00535 whole entry, species assumed): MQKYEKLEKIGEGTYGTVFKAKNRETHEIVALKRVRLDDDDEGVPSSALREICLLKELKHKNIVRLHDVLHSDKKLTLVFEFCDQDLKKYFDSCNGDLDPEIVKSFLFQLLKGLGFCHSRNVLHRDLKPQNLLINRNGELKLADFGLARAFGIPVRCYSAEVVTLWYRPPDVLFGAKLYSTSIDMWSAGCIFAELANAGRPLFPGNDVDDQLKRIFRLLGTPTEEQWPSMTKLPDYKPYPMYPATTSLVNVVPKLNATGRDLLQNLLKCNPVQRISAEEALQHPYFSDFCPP
Sequence of cdk5/p25 (Q15078 99-307 partner limits assumed, species assumed): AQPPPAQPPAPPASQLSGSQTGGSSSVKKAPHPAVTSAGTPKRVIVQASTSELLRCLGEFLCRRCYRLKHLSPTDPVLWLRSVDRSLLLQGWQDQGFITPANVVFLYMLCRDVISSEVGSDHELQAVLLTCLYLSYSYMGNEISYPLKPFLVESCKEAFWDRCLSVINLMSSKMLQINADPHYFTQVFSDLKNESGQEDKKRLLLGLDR

SMILES | IC50 [1] [µM] | IC50 [2] [µM] | melting point [°C]
CC1CCn2c(nc(-c3ccncc3)cc2=O)N1C[C@@H](O)c1ccccc1 (mixture of isomers) [Table 3 Compound 7, 9-[2(S)-Hydroxy-2-phenyl-ethyl]-8-methyl-2-(pyridin-4-yl)-6,7,8,9-tetrahydro-pyrimido[1,2-a]pyrimidin-4-one] | 0.344 | 0.004 | 
CC1CCn2c(nc(-c3ccncc3)c(F)c2=O)N1CC(=O)c1ccccc1 (racemic) [Table 3 Compound 18, 3-Fluoro-8-methyl-9-(2-oxo-2-phenyl-ethyl)-2-(pyridin-4-yl)-6,7,8,9-tetrahydro-pyrimido[1,2-a]pyrimidin-4-one] |  |  | 201 to 202
CC1(C)CN(C[C@@H](O)c2ccccc2)c2nc(-c3ccncc3)c(F)c(=O)n2C1 [Table 1 Compound 12, 9-(2(S)-Hydroxy-2-phenyl-ethyl)-3-fluoro-7,7-dimethyl-2-(pyridin-4-yl)-6,7,8,9-tetrahydro-4H-pyrimido[1,2-a]pyrimidin-4-one] | 0.334 | 0.011 | 
O=C(CN1CCCn2c1nc(-c1ccncc1)c(F)c2=O)c1cccc(F)c1 [Table 1 Compound 37, 9-[2-Oxo-2-(3-fluorophenyl)-ethyl]-3-fluoro-2-(pyridin-4-yl)-6,7,8,9-tetrahydro-4H-pyrimido[1,2-a]pyrimidin-4-one] | 4.6 | 0.004 | 
O=c1c(F)c(-c2ccncc2)nc2n1CCCN2C[C@@H](O)c1ccccc1 [Table 1 Compound 44, 9-(2(S)-Hydroxy-2-phenyl-ethyl)-3-fluoro-2-(pyridin-4-yl)-6,7,8,9-tetrahydro-4H-pyrimido[1,2-a]pyrimidin-4-one] | > 1 | 0.006 | 
CO[C@H](CN1CCCn2c1nc(-c1ccncc1)c(F)c2=O)c1ccccc1 [Table 1 Compound 45, 9-(2(S)-Methoxy-2-phenyl-ethyl)-3-fluoro-2-(pyridin-4-yl)-6,7,8,9-tetrahydro-4H-pyrimido[1,2-a]pyrimidin-4-one] | > 1 | 0.006 | 
Cc1ccc([C@H](O)CN2c3nc(-c4ccncc4)cc(=O)n3CCC2(C)C)cc1 [Table 3 Compound 32, 9-(2(S)-Hydroxy-2-p-tolyl-ethyl)-8,8-dimethyl-2-(pyridin-4-yl)-6,7,8,9-tetrahydro-pyrimido[1,2-a]pyrimidin-4-one] | > 1 | 0.001 | 

Other lines, results leading:

IC50 [1] [µM] | IC50 [2] [µM] | melting point [°C] | SMILES
0.067 | 0.06 |  | O=c1cc(-c2ccncc2)nc2n1CC(F)(F)CN2C[C@@H](O)c1ccccc1 [Table 1 Compound 5, 9-(2(S)-Hydroxy-2-phenyl-ethyl)-7,7-difluoro-2-(pyridin4-yl)-6,7,8,9-tetrahydro-4H-pyrimido[1,2-a]pyrimidin-4-one]
0.062 | 0.004 |  | O=C(CN1CCCn2c1nc(-c1ccncc1)c(Cl)c2=O)c1ccccc1 [Table 1 Compound 39, 9-(2-Oxo-2-phenyl-ethyl)-3-chloro-2-(pyridin-4-yl)-6,7,8,9-tetrahydro-4H-pyrimido[1,2-a]pyrimidin-4-one]
0.077 | 0.005 |  | O=C(CN1CCCn2c1nc(-c1ccncc1)c(Br)c2=O)c1ccccc1 [Table 1 Compound 40, 9-(2-Oxo-2-phenyl-ethyl)-3-bromo-2-(pyridin-4-yl)-6,7,8,9-tetrahydro-4H-pyrimido[1,2-a]pyrimidin-4-one]
0.154 | 0.028 |  | O=c1c(Cl)c(-c2ccncc2)nc2n1CCCN2C[C@@H](O)c1ccccc1 [Table 1 Compound 42, 9-(2(S)-Hydroxy-2-phenyl-ethyl)-3-chloro-2-(pyridin-4-yl)-6,7,8,9-tetrahydro-4H-pyrimido[1,2-a]pyrimidin-4-one]
